The values below come from patent US10138230B2, “Autotaxin inhibitors” (CANCER RESEARCH TECHNOLOGY LIMITED, priority 2015, dated 2018).

For the experiment, the target named is human recombinant ATX (Homo sapiens (Human), UniProt Q13822). The experiment in a line: Autotaxin (ATX) activity Quanta Red assay. It counts as biochemical. To be noted: 15 μM Rac-1-Palmitoyl-glycero-3-phosphocholine, 2 hours room temperature, determined in duplicate. The procedure, abridged:
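Choline released from 15 μM LPC substrate by 0.8 μg/mL recombinant human ATX (pH 8.0 Tris, CaCl2, 4% DMSO, 2 h, RT) was detected by coupled Quanta Red fluorescence.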

Counter-ions that a name gives are not always drawn.

`O=C(Nc1nnc(CCc2ccc(Cl)cc2)s1)C1CC(=O)N(c2ccc(CN3CCCCC3)cc2)C1` (stereo not shown) [Compound F99, N-[5-[2-(4-chlorophenyl)ethyl]-1,3,4-thiadiazol-2-yl]-5-oxo-1-[4-(1-piperidylmethyl)phenyl] pyrrolidine-3-carboxamide]: the IC50 is 2 nM.

For the compound `O=C(Nc1nnc(CCC2CCOCC2)s1)[C@H]1CC(=O)N(c2ccc(CN3CCCCC3)cc2)C1` [Compound F190, (3S)-5-oxo-1-[4-(1-piperidylmethyl)phenyl]-N-[5-(2-tetrahydropyran-4-ylethyl)-1,3,4-thiadiazol-2-yl]pyrrolidine-3-carboxamide], the half-maximal inhibitory concentration (IC50) stood at 526 nM.

For the compound `O=C(Nc1nnc(CCc2ccc(F)cc2)s1)[C@H]1CC(=O)N(c2ccc(CN3CCOCC3)cc2)C1` [Compound F108, (3S)-N-[5-[2-(4-fluorophenyl)ethyl]-1,3,4-thiadiazol-2-yl]-1-[4-(morpholinomethyl)phenyl]-5-oxo-pyrrolidine-3-carboxamide], the IC50 came out at 3 nM.

`O=C(Nc1ncc(CCc2ccccc2)s1)C1CC(=O)N(c2ccc(CN3CCOCC3)cc2)C1` (stereo not shown) [Compound F118, 1-[4-(morpholinomethyl)phenyl]-5-oxo-N-[5-(2-phenylethyl)thiazol-2-yl]pyrrolidine-3-carboxamide]: the IC50 was found to be 4 nM.

Regarding `O=C(NC1CC(=O)N(c2ccc(CN3CCCCC3)cc2)C1)c1nnc(CCc2ccc(F)cc2)s1` (stereo not shown) [Compound F168, 5-[2-(4-fluorophenyl)ethyl]-N-[5-oxo-1-[4-(1-piperidylmethyl)phenyl]pyrrolidin-3-yl]-1,3,4-thiadiazole-2-carboxamide], the IC50 came to 17 nM.

For `O=C(Nc1nnc(CCc2ccc(F)cc2)s1)[C@H]1CC(=O)N(c2ccc(CN3CCOCC3)cc2)C1` (stereo in doubt) [Compound F215, 1-(4-Morpholin-4-ylmethyl-phenyl)-5-oxo-pyrrolidine-3-carboxylic acid {5-[2-(4-fluoro-phenyl)-ethyl]-[1,3,4]thiadiazol-2-yl}-amide; hydrochloride], the half-inhibitory concentration (IC50) came to 3 nM.

As to `CCC(C)CCc1nnc(NC(=O)C2CC(=O)N(c3ccc(CN4CCCCC4)cc3)C2)s1` (stereo not shown) [Compound F182, 5-oxo-1-(4-piperidin-1-ylmethyl-phenyl)-pyrrolidine-3-carboxylic acid [5-(3-methyl-pentyl)-[1,3,4]thiadiazol-2-yl]-amide; hydrochloride], the half-inhibitory concentration (IC50) was found to be 21 nM.
